Results on 62 compounds are retold here after US20110053897A1 (IRM LLC, priority 2009, published 2011).

The first test concerns the target T1, Syk kinase (Homo sapiens, UniProt P43405).
T1 construct: purchased
The experiment in a line: Syk kinase inhibition, Caliper LabChip off-chip mobility-shift kinase assay. It is filed as biochemical. The conditions noted are these: Caliper LabChip assay; read-out: Syk Enzyme IC50. The method, boiled down:
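Purified Syk pre-incubated 15 min with compound in 100 mM HEPES pH 7.5, 1 mM DTT, 10 mM MgCl2 or MnCl2, 0.002% Brij-35, then 1.5 μM fluorescein peptide and ATP at apparent KM added; 1–1.5 h at room temperature, 4% DMSO, EDTA stop. Microfluidic mobility-shift product/substrate conversion gave % inhibition; IC50 from 12-point series (10–0.00003 μM) by 4-parameter fit.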
In general, IC50 refers to the concentration that gives 50% inhibition. Take `CCn1ccc2cc(Nc3cc(C)ccn3)nc(N[C@@H]3CC[C@@H](CO)C3)c2c1=O` [compound 790]: the IC50 stood at 88 nM.
Still for that read-out and setting: in the case of `C[C@@H](CO)Nc1nc(Nc2cnccn2)cc2ccn(CCC#N)c(=O)c12` [compound 1003] it was 27 nM; in that of `Nc1ncc(-c2cc3ccn(CCO)c(=O)c3c(N[C@H]3CC[C@@H](O)CC3)n2)cn1` [compound 1028], 14 nM.
For the compound `CN1CCC(Oc2cc(Nc3cc4ccn(CCO)c(=O)c4c(NC(C)(C)C)n3)ncn2)CC1` [compound 648, 8-(tert-butylamino)-2-(2-hydroxyethyl)-6-(6-(1-methylpiperidin-4-yloxy)pyrimidin-4-ylamino)-2,7-naphthyridin-1(2H)-one], the IC50 is 6 nM.
For `CC(C)(C)Nc1nc(Nc2cc(C(=O)NO)ccn2)cc2ccn(CCO)c(=O)c12` [compound 879], the IC50 was determined as 26 nM.
For the compound `CC(C)(C)Nc1nc(Nc2cc(N3CCC(CO)CC3)ccn2)cc2ccn(CCO)c(=O)c12` [compound 847], the IC50 worked out at 500 nM.
With `COCCN1CCC(Oc2cc(Nc3cc4ccn(CCO)c(=O)c4c(NC(C)(C)C)n3)ncn2)CC1` [compound 647, 8-(tert-butylamino)-2-(2-hydroxyethyl)-6-(6-(1-(2-methoxyethyl)piperidin-4-yloxy)pyrimidin-4-ylamino)-2,7-naphthyridin-1(2H)-one], the IC50 is 14 nM.
`CC(C)(C)Nc1nc(Nc2cc(C(C)(C)O)ccn2)cc2ccn(CC(N)=O)c(=O)c12` [compound 726]: the IC50 was determined as 108 nM.
With `CC(N)c1ccnc(Nc2cc3ccn(CCO)c(=O)c3c(NC(C)(C)C)n2)c1` (centres unmarked) [compound 712, 6-(4-(1-aminoethyl)pyridin-2-ylamino)-8-(tert-butylamino)-2-(2-hydroxyethyl)-2,7-naphthyridin-1(2H)-one], the IC50 is 53 nM.
In the case of `Cn1ccc2cc(Nc3nccc(O)n3)nc(Nc3ccc(C(=O)N4CCOCC4)cc3)c2c1=O` [compound 805], the IC50 is 752 nM.
As for `C/C(=N\O)c1ccnc(Nc2cc3ccn(CCO)c(=O)c3c(NC(C)(C)C)n2)c1` [compound 685, (E)-8-(tert-butylamino)-2-(2-hydroxyethyl)-6-(4-(1-(hydroxyimino)ethyl)pyridin-2-ylamino)-2,7-naphthyridin-1(2H)-one], the IC50 came to 62 nM.
On to `[2H]C([2H])([2H])n1ccc2cc(Nc3cnccn3)nc(N[C@H]3CC[C@@H](CO)C3)c2c1=O` [compound 986], for which the IC50 was found to be 9 nM.
Turning to `CC(C)(C)Nc1nc(Nc2cnccn2)cc2ccn(Cc3ccccn3)c(=O)c12` [compound 1021], the half-maximal inhibitory concentration (IC50) was 219 nM.
On the same count and under the same terms, next, `COCCCN(C)S(=O)(=O)c1ccc(Nc2nc(Nc3cc(C)ccn3)cc3ccn(C)c(=O)c23)cc1` [compound 651]: 2410 nM; `O=c1c2c(NC3CC3)nc(Nc3cnccn3)cc2ccn1CCO` [compound 818]: 27 nM; `CC1(Cn2ccc3cc(Nc4cnccn4)nc(NC4CCC4)c3c2=O)COC1` [compound 755]: 9 nM.
`CC(C)(C)Nc1nc(Nc2cc(CCO)ccn2)cc2ccn(CCO)c(=O)c12` [compound 857]: the IC50 turned out to be 4 nM.
As to `CC(C)(C)Nc1nc(Nc2cnccn2)cc2ccn(CCS(C)(=O)=O)c(=O)c12` [compound 738, 8-(tert-butylamino)-2-(2-(methylsulfonyl)ethyl)-6-(pyrazin-2-ylamino)-2,7-naphthyridin-1(2H)-one], the IC50 was 9 nM.
In the case of `CC(C)n1ccc2cc(-c3cnc(N)nc3)nc(N[C@H]3CC[C@@H](O)CC3)c2c1=O` [compound 1027], the IC50 worked out at 32 nM.
Turning to `CC(C)(C)Nc1nc(Nc2cc(OCC3CCCO3)ncn2)cc2ccn(CC(O)CO)c(=O)c12` (centres unmarked) [compound 891], the IC50 came to 60 nM.
`CC1(O)CN(c2cc(Nc3cc4ccn(CCO)c(=O)c4c(NC(C)(C)C)n3)ncn2)C1` [compound 630, 8-(tert-butylamino)-6-(6-(3-hydroxy-3-methylazetidin-1-yl)pyrimidin-4-ylamino)-2-(2-hydroxyethyl)-2,7-naphthyridin-1(2H)-one]: the IC50 worked out at 204 nM.
As to `CC[C@@H](CO)Nc1nc(Nc2cnccn2)cc2ccn(CC)c(=O)c12` [compound 1042], the IC50 amounted to 111 nM.
Consider `[2H]C([2H])([2H])n1ccc2cc(Nc3cnccn3)nc(NC[C@@H]3CCCO3)c2c1=O` [compound 1048], for which the IC50 stood at 164 nM.
Same read-out and setting: in the case of `CCn1ccc2cc(Nc3cnccn3)nc(N[C@H]3CCC[C@H]3O)c2c1=O` [compound 938] it was 24 nM; in that of `CCn1ccc2cc(Nc3cc(C)ccn3)nc(Nc3ccc(C(=O)N4CCC(O)C4)cc3)c2c1=O` (centres unmarked) [compound 836], 119 nM.
Turning to `Cn1ccc2cc(Nc3nccc(O)n3)nc(NC3CCC3)c2c1=O` [compound 800], the IC50 turned out to be 9 nM.
In the case of `COCCOc1cc(Nc2cc3ccn(CC(O)CO)c(=O)c3c(NC(C)(C)C)n2)ncn1` (centres unmarked) [compound 885], the IC50 turned out to be 78 nM.
With `CC(C)(Nc1nc(Nc2cnccn2)cc2ccn(CCO)c(=O)c12)C1CC1` [compound 670], the IC50 came to 89 nM.

Staying with this test, now noted: read-out: Syk Enzyme IC50.
`CCN1CCN(CCc2ccc(Nc3nc(-c4cnc(OC)nc4)cc4c(F)c[nH]c(=O)c34)cc2)CC1` [compound 439]: the IC50 was found to be 474 nM.
On to `COc1cncc(-c2cc3cc[nH]c(=O)c3c(Nc3ccc(C4CCN(CCC(N)=O)CC4)c(C)c3)n2)n1` [compound 158], for which the IC50 is 24 nM.
Take `CCn1ccc2cc(Nc3cnccn3)nc(N[C@H]3CCCC[C@H]3O)c2c1=O` (racemic) [compound 409]: the IC50 was 128 nM.
With `COCCN1CC(c2ccc(Nc3nc(-c4cncc(OC)n4)cc4cc[nH]c(=O)c34)cc2)C1` [compound 150], the IC50 is 83 nM.
In the case of `CC(C)Nc1nc(Nc2cc(C(N)=O)ccn2)cc2cc[nH]c(=O)c12` [compound 514], the IC50 was determined as 51 nM.
On to `CC(C)(C)Nc1nc(-c2cnc(N)nc2)cc2cc[nH]c(=O)c12` [compound 455], for which the IC50 was 59 nM.
The same measure, in the same setting: in the case of `O=c1[nH]ccc2cc(Nc3ccccn3)nc(NC3CCCC3)c12` [compound 296] it was 153 nM; in that of `Cc1ccnc(Nc2cc3cc[nH]c(=O)c3c(N[C@@H]3CCOC3)n2)c1` [compound 301], 37 nM.
As to `O=c1[nH]ccc2cc(CCO)nc(Nc3ccc(N4CCOCC4)cc3)c12` [compound 244], the IC50 is 31 nM.
On to `CCn1ccc2cc(Nc3cnccn3)nc(N[C@H]3CCOC3)c2c1=O` [compound 355], for which the IC50 turned out to be 37 nM.
Turning to `Cc1ccnc(Nc2cc3ccn(C)c(=O)c3c(Nc3cc(C)ccn3)n2)c1` [compound 569], the half-maximal inhibitory concentration (IC50) came out at 701 nM.
As for `CCC(C)Nc1nc(Nc2ccc(F)cn2)cc2cc[nH]c(=O)c12` (centres unmarked) [compound 264], the IC50 was found to be 423 nM.
As to `Nc1nccc(-c2cc3cc[nH]c(=O)c3c(Nc3ccc(N4CCOCC4)cc3)n2)n1` [compound 53], the half-inhibitory concentration (IC50) turned out to be 494 nM.
As to `Cc1ccnc(Nc2cc3cc[nH]c(=O)c3c(NC[C@@H](O)c3cccc(Cl)c3)n2)c1` [compound 539], the IC50 was 915 nM.
Same read-out and setting: next, `CCC(=O)N1CCC(c2ccc(Nc3nc(-c4cncc(OC)n4)cc4cc[nH]c(=O)c34)cc2C)CC1` [compound 80]: 63 nM.
On the same count and under the same terms, in the case of `C[C@@H](O)CNc1nc(Nc2cnccn2)cc2ccn(C)c(=O)c12` [compound 470] it was 82 nM.
For `CNS(=O)(=O)c1ccc(Nc2nc(Nc3cc(C)ccn3)cc3ccn(C)c(=O)c23)cc1` [compound 349], the IC50 amounted to 414 nM.
As for `CCn1ccc2cc(Nc3cc(C)ccn3)nc(N[C@H]3CC[C@@H](O)C3)c2c1=O` [compound 424], the IC50 turned out to be 47 nM.
`Cc1ccnc(Nc2cc3ccn(CCO)c(=O)c3c(N[C@H]3CCOC3)n2)c1` [compound 369]: the IC50 is 12 nM.
On to `Cc1nc(-c2cc3cc[nH]c(=O)c3c(Nc3ccc(N4C[C@@H](C)O[C@@H](C)C4)nc3)n2)cnc1N` [compound 19], for which the IC50 is 222 nM.
Take `O=c1[nH]ccc2cc(CCCO)nc(Nc3ccc(N4CCOCC4)cc3)c12` [compound 247]: the IC50 is 45 nM.
Turning to `COc1ncc(-c2cc3cc[nH]c(=O)c3c(Nc3ccc(CCN4CCCN(C)CC4)cc3)n2)cn1` [compound 436], the IC50 turned out to be 140 nM.
On to `COCC1(C(=O)N2CCC(c3ccc(Nc4nc(-c5cncc(OC)n5)cc5cc[nH]c(=O)c45)cc3C)CC2)CC1` [compound 16], for which the IC50 came out at 99 nM.
As for `Cc1ccnc(Nc2cc3ccn(CCN(C)C)c(=O)c3c(N[C@H]3CC[C@@H](O)CC3)n2)c1` [compound 386], the IC50 worked out at 49 nM.
Regarding `CCn1ccc2cc(Nc3cnccn3)nc(NC(C)C)c2c1=O` [compound 307], the IC50 was 60 nM.
As to `COc1cncc(-c2cc3cc[nH]c(=O)c3c(Nc3ccc(C4CCN(CCC(=O)N5CCOCC5)CC4)c(C)c3)n2)n1` [compound 162], the IC50 was determined as 32 nM.
With `Nc1ncc(-c2cc3cc[nH]c(=O)c3c(N3CCCC3)n2)cn1` [compound 181], the IC50 is 15 nM.
Take `COc1ccnc(Nc2cc3cc[nH]c(=O)c3c(Nc3ccc(C4CCN(C5CC5)CC4)c(C)c3)n2)c1` [compound 259]: the half-inhibitory concentration (IC50) came to 255 nM.
As to `Cc1ccnc(Nc2cc3ccn(C)c(=O)c3c(NC(C)(C)CO)n2)c1` [compound 499], the IC50 was 31 nM.
With `Cc1ccnc(Nc2cc3c(F)cn(C)c(=O)c3c(NC(C)C)n2)c1` [compound 567], the IC50 came out at 978 nM.
As to `CCc1ccnc(Nc2cc3cc[nH]c(=O)c3c(Nc3ccc(C4CCN(C5CC5)CC4)c(C)c3)n2)c1` [compound 253], the IC50 was 33 nM.
For the compound `CCNC(=O)Cn1ccc2cc(Nc3cc(C)ccn3)nc(NC(C)C)c2c1=O` [compound 316], the IC50 was 270 nM.
The same measure, in the same setting: next, `Cc1ccc(Nc2cc3cc[nH]c(=O)c3c(Nc3ccc(C4CCN(CC(N)=O)CC4)c(C)c3)n2)nc1` [compound 558]: 489 nM.
On the same count and under the same terms, in the case of `Cc1ccc(-c2cc3cc[nH]c(=O)c3c(Nc3ccc(CCN4CCNC(=O)C4)cc3)n2)cn1` [compound 152] it was 117 nM.
